Results taken from patent publication US20250205265A1, “ASPERULOSIDE AS AN AGENT FOR IMPROVING VASCULAR AND METABOLIC FUNCTION IN OBESITY: ROLE OF NRF2 ACTIVATION” (The Chinese University of Hong Kong, priority 2023, published 2025).
“Also recorded” adds a separate entry of the source.

What was measured:
VCAM-1 and ICAM-1 = assay: Endothelial activation (VCAM-1 and ICAM-1) in endothelial cells; format: cell-based
Protocol: (§1) After induction of obesity in C57BL/6 male mice fed with high fat diet for twelve weeks, they were treated daily with ASP (50 mg/kg) via oral gavage for seven weeks in vivo study. C57BL/6 mice aortae were used for ex vivo study and endothelial cells were used for in vitro study. Vascular function was determined by wire myograph. DHE and MitoSOX staining were used to detect ROS levels. QPCR, aortic en-face immunofluorescence staining, and Western blotting were used to analyze mRNA and protein expressions. Small interfering (si)RNA of Nrf2 and HO-1, inhibitors of Nrf2 (ML385, Cat. No.: HY-100523) and HO-1 (OB-24, HY-118487) were used to elucidate the mechanistic pathway of ASP's action.
After induction of obesity in C57BL/6 male mice fed with the high-fat diet for twelve weeks, they were treated daily with ASP (50 mg/kg) via oral gavage for seven weeks in vivo study. C57BL/6 mice aortae were used for ex vivo studies. Endothelial cells, HepG2 and primary adipocytes were used for in vitro studies. Vascular function was determined by wire myograph. H&E staining was employed for histological examination. Oil Red O staining was used to determine lipid droplets in tissues and cells. DHE and MitoSOX staining were used to detect ROS levels. […] ARE binding activity was determined by Dual luciferase reporter assay. […]

ROS = assay: Ex vivo DHE staining of ROS in IL-1β-treated aortas; design: species or system mice
Protocol: as §1
(§2) After induction of obesity in C57BL/6 male mice fed with the high-fat diet for twelve weeks, they were treated daily with ASP (50 mg/kg) via oral gavage for seven weeks in vivo study. C57BL/6 mice aortae were used for ex vivo studies. Endothelial cells, HepG2 and primary adipocytes were used for in vitro studies. Vascular function was determined by wire myograph. H&E staining was employed for histological examination. Oil Red O staining was used to determine lipid droplets in tissues and cells. DHE and MitoSOX staining were used to detect ROS levels. QPCR, aortic en-face immunofluorescence staining, and Western blotting were used to analyze mRNA and protein expressions. ARE binding activity was determined by Dual luciferase reporter assay. Small interfering (si)RNA of Nrf2 and HO-1, inhibitors of Nrf2 (ML385, Cat. No.: HY-100523) and HO-1 (OB-24, HY-118487) were used to elucidate the mechanistic pathway of ASP's action.

Nrf2 [1] = assay: Nrf2 nuclear translocation in primary adipocytes (immunofluorescence); format: cell-based, mice; details: 40 μmol/L ASP for 24 hours
Protocol: Primary adipocytes were treated with 40 μmol/L ASP (FIG. 22A) or different doses of ASP (FIG. 22B) for 24 hours. […] Scale bar, 50 μm (FIG. 22B). Data represent means±SEM of 4 experiments. P values were determined using One-way ANOVA. *p<0.05.
as §2

[2] = test system: Ho-1, Sirt1, Sirt3, Sirt6 and Sod2; assay: Real-time PCR of Nrf2 downstream genes in obese mice livers; format: in vivo
Protocol: as §2

Nrf2 [3] = assay: Nrf2 nuclear translocation in endothelial cells; format: cell-based
Protocol: as §1, §2

Npra, Hsl, Fas, Acc2 = assay: Real-time PCR of lipid metabolism genes in obese mice livers; format: in vivo
Protocol: as §2

[4] = test system: adipose tissues of obese mice; assay: Real-time PCR of adipose tissues of obese mice; format: in vivo
Protocol: as §2

Nrf2 [5] = assay: Nrf2 nuclear translocation in palmitic acid-treated HepG2 cells; format: cell-based
Protocol: as §2

Nrf2 protein = target: T1, Nrf2 protein (Mus musculus, UniProt Q60795); assay: CETSA in endothelial cells; format: binding; details: ASP 40 μmol/L
T1 construct: endogenous in cells
Protocol: The Nrf2 protein expression was normalized to total protein. P values were determined using One-way ANOVA. *p<0.05. Data represent means±SEM of 3 experiments.

[6] = perirenal adipose tissues in obese mice
[7] = visceral adipose tissues in obese mice

T1 sequence (Q60795 whole entry): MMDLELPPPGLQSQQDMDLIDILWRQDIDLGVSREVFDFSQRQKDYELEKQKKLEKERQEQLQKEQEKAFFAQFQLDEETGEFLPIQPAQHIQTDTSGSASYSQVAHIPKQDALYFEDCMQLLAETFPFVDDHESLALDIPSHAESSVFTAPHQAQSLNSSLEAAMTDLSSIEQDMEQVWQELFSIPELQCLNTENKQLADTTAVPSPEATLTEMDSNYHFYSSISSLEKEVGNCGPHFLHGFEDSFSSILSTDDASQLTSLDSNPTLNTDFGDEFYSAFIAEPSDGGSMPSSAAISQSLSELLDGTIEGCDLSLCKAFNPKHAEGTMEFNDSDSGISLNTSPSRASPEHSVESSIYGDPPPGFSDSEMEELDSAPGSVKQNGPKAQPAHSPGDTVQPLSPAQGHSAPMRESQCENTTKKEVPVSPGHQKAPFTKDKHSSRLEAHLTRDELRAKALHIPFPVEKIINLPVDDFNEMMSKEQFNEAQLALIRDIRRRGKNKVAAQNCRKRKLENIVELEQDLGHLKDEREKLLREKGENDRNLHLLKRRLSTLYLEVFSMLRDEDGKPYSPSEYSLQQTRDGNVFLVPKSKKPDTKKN

Asperuloside
endothelial activation (VCAM-1 and ICAM-1; HO-1-silencing (HO-1-siRNA transfected) endothelial cells): fails to decrease ROS level (FIG. 2E) or inhibit endothelial activation; also recorded: failed to prevent endothelial dysfunction in HO-1 inhibited aortae (FIGS. 2A-2D) and HO-1-siRNA transfected endothelial cells | overexpression of VCAM-1 and ICAM-1 (VCAM-1 and ICAM-1; endothelial cells): inhibits overexpression of VCAM-1 and ICAM-1 | ROS generation (ROS; IL-1β, HO-1-inhibited aortas): fails to rescue the impairment (FIG. 2C) or decrease ROS generation | IL-1β-induced ROS overproduction (ROS; ML385-treated aortas): fails to reverse impairment (FIG. 4E) or suppress IL-1β-induced ROS overproduction | IL-1β-induced ROS overexpression (DHE staining) (ROS; endothelial Nrf2 knocked down): fails to suppress IL-1β-induced ROS overexpression | Nrf2 nuclear translocation (Nrf2 [1]): stimulates Nrf2 nuclear translocation in adipocytes | gene expressions of Ho-1, Sirt1, Sirt3, Sirt6 and Sod2 ([2]; obese mice livers): upregulates gene expressions of Ho-1, Sirt1, Sirt3, Sirt6 and Sod2 | increase of HO-1 mRNA expression in the liver ([2]; worded as embodiment, cf. FIG. 13C): about 2.5 fold | Nrf2 nuclear expression (western blotting) (Nrf2 [3]; 40 μmol/L ASP, endothelial cells under basal conditions): increases Nrf2 nuclear expressions | Nrf2 nuclear translocation (western blotting) (Nrf2 [3]; endothelial cells): dose-dependently stimulates Nrf2 nuclear translocation; also recorded: increased nuclear Nrf2 | mRNA expression levels of fatty acid synthesis-related genes, including Fas and Acc2 (Npra, Hsl, Fas, Acc2): downregulated | mRNA expression levels of lipolysis-related genes, Npra and Hsl (Npra, Hsl, Fas, Acc2): increases the mRNA expression levels of lipolysis-related genes, Npra and Hsl | Cd36 upregulation ([4]; perirenal adipose tissues): inhibited Cd36 upregulation | Acox1 expression [4, 6]: increased | Nprc expression [4, 6]: downregulates Nprc expression | mRNA expression levels of Srebp1 and Acc2 [4, 6]: decreases mRNA expression levels of Srebp1 (FIG. 15A) and Acc2 | expression levels of Il-6 and Il-1β ([4]; perirenal adipose tissues of obese mice): reverses enhanced expression levels of Il-6 (FIG. 16A) and Il-1β | Cd36 upregulation ([4]; subcutaneous adipose tissues): inhibited Cd36 upregulation | Hsl expression ([4]; subcutaneous adipose tissues in obese mice): upregulates Hsl expression | expression of F4/80 ([4]; subcutaneous adipose tissues of obese mice): reverses the elevated expression of F4/80 | Nprc expression [4, 7]: decreased Nprc expression | Tnfα expression [4, 7]: decreases Tnfα expression | upregulation of Cd11c, Cd11b, and F4/80 ([4]; visceral adipose tissues of obese mice): suppresses the upregulation of Cd11c (FIG. 20A), Cd11b (FIG. 20B), and F4/80 | Nrf2 nuclear translocation (immunofluorescence) (Nrf2 [5]): stimulates Nrf2 nuclear translocation in palmitic acid-treated HepG2 cells | melting behavior of Nrf2 protein (CETSA) (Nrf2 protein; 0.3 ng/mL IL-1β-treated endothelial cells): changes the melting behavior of Nrf2 protein | melting behavior of Nrf2 protein (CETSA) (Nrf2 protein; endothelial cells under basal conditions): changes the melting behavior of Nrf2 protein
